According to patent US5874443A, “Isoquinoline derivatives and isoquinoline combinatorial libraries” (Trega Biosciences, Inc., priority 1996, dated 1999):
“Also recorded” adds a separate entry of the source.

molecular target: T1, σ receptor (Rattus norvegicus, UniProt Q9R0C9); assay: σ receptor radio-receptor assay, inhibition of radiolabeled pentazocine binding; details: Table IV; individual compounds, R1 varied
T1 construct: The brains are thawed, the cerebella removed and the remaining tissue weighed; tissue Rockland (Gilbertsville, Pa.); host or cells: rat brain without cerebellum, crude particulate membranes
T1 sequence (Q9R0C9 whole entry): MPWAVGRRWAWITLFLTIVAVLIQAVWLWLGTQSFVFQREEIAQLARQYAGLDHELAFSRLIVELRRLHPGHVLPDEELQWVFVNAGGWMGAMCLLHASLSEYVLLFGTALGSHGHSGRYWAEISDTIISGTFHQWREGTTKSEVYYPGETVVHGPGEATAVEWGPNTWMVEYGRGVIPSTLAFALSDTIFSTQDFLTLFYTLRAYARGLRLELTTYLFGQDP

Row | Structure (SMILES) | IC50 [nM]
1 | COc1ccc(Cc2ccc(C3C(C(=O)NCC45CC6CC(CC(C6)C4)C5)c4ccccc4C(=O)N3CCCCCCC(N)=O)o2)cc1 (centres unmarked) [Compound 1] | 56
2 | COc1ccc(Cc2ccc(C3C(C(=O)NCC45CC6CC(CC(C6)C4)C5)c4ccccc4C(=O)N3C[C@H](N)C(N)=O)o2)cc1 (some centres unmarked) [Compound 3] | 71
3 | COc1ccc(Cc2ccc(C3C(C(=O)NCC45CC6CC(CC(C6)C4)C5)c4ccccc4C(=O)N3C[C@H]3CC[C@H](C(N)=O)CC3)o2)cc1 (some centres unmarked) [Pool 2] | 68
4 | COc1ccc(Cc2ccc(C3C(C(=O)NCC45CC6CC(CC(C6)C4)C5)c4ccccc4C(=O)N3CCOCCOCC(N)=O)o2)cc1 (centres unmarked) [Pool 5] | 117
5 | COc1ccc(Cc2ccc(C3C(C(=O)NCC45CC6CC(CC(C6)C4)C5)c4ccccc4C(=O)N3CC(N)=O)o2)cc1 (centres unmarked) [Pool 6] | 124
6 | COc1ccc(Cc2ccc(C3C(C(=O)NCC45CC6CC(CC(C6)C4)C5)c4ccccc4C(=O)N3Cc3ccc(C(N)=O)cc3)o2)cc1 (centres unmarked) [Pool 7] | 130
7 | COc1ccc(Cc2ccc(C3C(C(=O)NCC45CC6CC(CC(C6)C4)C5)c4ccccc4C(=O)N3CCCC[C@H](N)C(N)=O)o2)cc1 (some centres unmarked) [Pool 8] | 150
8 | COc1ccc(Cc2ccc(C3C(C(=O)NCC45CC6CC(CC(C6)C4)C5)c4ccccc4C(=O)N3CCCCC(N)=O)o2)cc1 (centres unmarked) [Pool 9] | 231
9 | COc1ccc(Cc2ccc(C3C(C(=O)NCC45CC6CC(CC(C6)C4)C5)c4ccccc4C(=O)N3CCC(N)=O)o2)cc1 (centres unmarked) [Pool 10] | 355

same assay, conditions: in words; Example 44

Row | Structure (SMILES) | activity in the σ receptor assay (iterative approach)
10 | COc1ccc(Cc2ccc(C3C(C(=O)NCC45CC6CC(CC(C6)C4)C5)c4ccccc4C(=O)N3CCCCCCC(N)=O)o2)cc1 (centres unmarked) [Compound 1] | most active

same assay, conditions: in words; Example 51

Row | Structure (SMILES) | activity in the σ receptor screen (positional scan)
11 | COc1ccc(Cc2ccc(C3C(C(=O)NCC4CCCCC4)c4ccccc4C(=O)N3CCCCCCC(N)=O)o2)cc1 (centres unmarked) | most active; also recorded: virtually equal activity
